# Measured values reported in patent US7858312B2, “Method of treating bladder and lower urinary tract syndromes” (Duke University, priority 1998, dated 2010).
# Experiments:
# α1dAR = target: T1, α1dAR (Homo sapiens, UniProt P25100); test: BMY7378 competition binding vs [125I]HEAT in human detrusor membranes, high affinity site; conditions: share of total binding sites with high affinity, two-site fit, n=13
# T1 construct: from tissue; host or cells: human bladder detrusor smooth muscle membranes
# T1 sequence (P25100 1-572): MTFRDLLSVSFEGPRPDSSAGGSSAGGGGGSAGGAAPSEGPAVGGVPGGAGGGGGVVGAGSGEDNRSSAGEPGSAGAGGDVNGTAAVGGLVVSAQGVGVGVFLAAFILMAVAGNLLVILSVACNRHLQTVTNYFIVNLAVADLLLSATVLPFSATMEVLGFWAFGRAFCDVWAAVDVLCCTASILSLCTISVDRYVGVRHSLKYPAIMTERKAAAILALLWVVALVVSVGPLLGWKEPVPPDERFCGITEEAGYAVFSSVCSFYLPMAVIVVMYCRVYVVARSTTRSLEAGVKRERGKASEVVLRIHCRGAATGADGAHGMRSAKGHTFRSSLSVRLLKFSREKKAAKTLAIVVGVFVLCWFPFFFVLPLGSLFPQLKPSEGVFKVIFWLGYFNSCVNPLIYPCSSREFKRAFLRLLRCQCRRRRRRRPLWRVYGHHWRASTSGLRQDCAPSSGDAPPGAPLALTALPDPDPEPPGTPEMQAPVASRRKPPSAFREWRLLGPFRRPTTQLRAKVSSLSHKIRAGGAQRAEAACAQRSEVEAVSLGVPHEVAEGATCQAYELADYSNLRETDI
# Method: (§1) Human detrusor and rat bladder membrane preparation. Human detrusor and rat whole bladder was minced over dry ice, and suspended in cold lysis buffer (5 mM Tris HCl and 5 mM EDTA, pH 7.4) with protease inhibitors benzamidine (10 mg/ml), leupeptin (5 mg/ml), and soybean trypsin inhibitor (10 mg/ml) (Sigma Chemical Company; St. Louis, Mo.). A lysate was prepared with a Polytron PT 3000 (Brinkmann; Westbury, N.Y.) at 10,000 rpm for 10 seconds. After pelleting at 40,000×g for 15 minutes (Sorvall SM24 rotor), membranes were suspended in cold resuspension buffer (150 mM NaCl, 50 mM Tris-HCl, 5 mM EDTA, pH 7.4) with protease inhibitors, and kept on ice for immediate use (or stored at −70° C. for later use). Protein content was determined using the bicinchoninic assay (BCA) with bovine serum albumin (BSA) standards (Pierce; Rockford, Ill.).
# (§2) Reaction conditions were as described above. Curves were fit with […] regression analysis using InPlot software (GraphPad).
# α1bAR = target: T2, α1bAR (Homo sapiens, UniProt P35368); test: BMY7378 competition binding, membranes from rat-1 fibroblasts stably transfected with α1bAR (control); conditions: Control α1b: rat-1 fibroblast membranes stably transfected with α1bAR; read-out: pKi α1bAR (converted)
# T2 construct: expressed in transfected cells; host or cells: rat-1 fibroblasts, stably transfected; membranes
# T2 sequence (P35368 1-520): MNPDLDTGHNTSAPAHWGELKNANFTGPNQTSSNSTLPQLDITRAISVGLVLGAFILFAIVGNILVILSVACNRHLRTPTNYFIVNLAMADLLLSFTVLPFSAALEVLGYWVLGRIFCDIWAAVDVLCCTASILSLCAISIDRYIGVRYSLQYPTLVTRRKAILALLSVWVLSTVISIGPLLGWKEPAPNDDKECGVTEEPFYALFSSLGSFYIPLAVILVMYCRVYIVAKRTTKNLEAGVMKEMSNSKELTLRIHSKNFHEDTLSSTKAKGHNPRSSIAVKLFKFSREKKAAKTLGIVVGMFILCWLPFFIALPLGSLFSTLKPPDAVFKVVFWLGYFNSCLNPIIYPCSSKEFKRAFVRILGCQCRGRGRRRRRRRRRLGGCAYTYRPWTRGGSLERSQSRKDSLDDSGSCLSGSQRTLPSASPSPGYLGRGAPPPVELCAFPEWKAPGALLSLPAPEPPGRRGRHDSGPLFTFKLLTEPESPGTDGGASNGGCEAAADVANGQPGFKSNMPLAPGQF
# Excerpt: as §2
# α1aAR = target: T3, α1aAR (Homo sapiens, UniProt P35348); test: BMY7378 competition binding vs [125I]HEAT in human detrusor membranes, low affinity site; conditions: share of total binding sites with low affinity, two-site fit, n=13
# T3 construct: from tissue; host or cells: human bladder detrusor smooth muscle membranes
# T3 sequence (P35348 1-466): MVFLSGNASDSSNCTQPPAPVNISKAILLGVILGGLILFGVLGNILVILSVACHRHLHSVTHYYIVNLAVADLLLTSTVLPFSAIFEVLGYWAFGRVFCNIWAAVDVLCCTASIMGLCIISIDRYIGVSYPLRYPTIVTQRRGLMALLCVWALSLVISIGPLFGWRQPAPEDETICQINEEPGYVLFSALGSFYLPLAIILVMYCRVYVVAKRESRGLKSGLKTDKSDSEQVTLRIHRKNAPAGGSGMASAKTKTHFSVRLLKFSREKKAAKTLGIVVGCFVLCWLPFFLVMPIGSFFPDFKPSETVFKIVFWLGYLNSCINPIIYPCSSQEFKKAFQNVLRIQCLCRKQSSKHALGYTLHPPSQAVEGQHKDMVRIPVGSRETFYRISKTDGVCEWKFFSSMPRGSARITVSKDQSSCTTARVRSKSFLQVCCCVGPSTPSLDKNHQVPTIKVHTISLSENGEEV
# Method: as §1, §2
# α1ARs in human detrusor = test: [125I]HEAT saturation binding in human detrusor membranes; conditions: saturation binding isotherm, n=5
# Method: as §1
# Radioligand binding. All mRNA and protein studies described were performed using detrusor from each patient described above (n=13). […] Dried filters were then counted in a gamma counter. Specific binding was calculated by subtracting nonspecific binding from total binding. […] Total α1AR density was then determined in each detrusor sample as described above, using a saturating concentration of [^125I]HEAT (300 pM). […]
Structure (SMILES),% High (α1dAR) [%],Ki (α1bAR) [µM],% Low (α1aAR) [%],Kd (α1ARs in human detrusor) [µM]
COc1ccccc1N1CCN(CCN2C(=O)CC3(CCCC3)CC2=O)CC1 [BMY7378],66±3.1,7.94,35±3.1,–
O=C1c2ccccc2CCC1CNCCc1ccc(O)c(I)c1 (stereo not shown) [[125I]HEAT],–,–,–,0.00013 ± 1.09e-06
